Assays:
LS180 cells = experiment: Analysis of change in cell cycle (propidium iodide, flow cytometry); format: cell-based, human; conditions: LS180, 50 nM, FIG. 10A; for change in cell cycle: 72 hours; for change in cell cycle, Sub G1 stage (cell death): long-term treatment (14 days)
Description: In order to observe a cell cycle, treated cells and untreated cells were each washed with DNase-free PBS twice, and were then immobilized with 70% ethanol (frozen). The immobilized cells were treated with PBS containing 10 µg/mL RNaseA and 50 µg/mL propidium iodide, while they were left in a dark place at room temperature for 30 minutes. Using an FL-2H filter of FACS Calibur flowcytometer (Becton Dickinson, USA), fluorescence intensity was measured. The rate of cell cycle was determined by analyzing the obtained data using Cell Quest software (Becton Dickinson, USA). Regarding the treatment of cells, LS180 was treated with 50 nM KR12 or KR13 (dissolved in 0.125% DMSO) for 72 hours, and as a long-term treatment experiment, a culture experiment was carried out for 14 days. As a control, the cells were cultured in an MEM medium containing 10% FBS and 0.125% DMSO for 14 days.

[1] = test system: mutant codon 12 KRAS gene and wild-type KRAS gene in LS180; experiment: Colony sequence of KRAS transcripts, LS180; format: cell-based, human; conditions: for MUT (number of mutant gene colonies) / WT (number of wild-type gene colonies): LS180, 50 nM, 48 hours, colony sequence, Table 2; for number of mutant gene colonies relative to wild-type gene colonies: LS180, colony sequence method
Description: The cells (6.5×10^4) were seeded and were then cultured overnight. Thereafter, the cultured cells were treated with 50 nM KR12 or KR13, and were then cultured for 48 hours. After that, the cultured cells were harvested, and RNA was then extracted. For the extraction, RT-PCT was carried out using RNeasy mini kit (Qiagen, CA). Subsequently, using the extracted RNA as a template, cDNA for reverse transcription was prepared by employing Super Script VILO cDNA Synthesis Kit (Invitrogen, CA). Using the prepared cDNA as a template, PCR was carried out using the primers shown in SEQ ID NO: 7 and SEQ ID NO: 8. After a reaction had been carried out at 94° C. for 5 minutes, a reaction cycle of 94° C.-30 seconds, 55° C.-30 seconds, and 72° C.-30 seconds was repeated 20 times. Finally, an elongation reaction was carried out at 72° C. for 7 minutes. The PCR product was cloned using pGEM-T Easy vector (Promega, WI). Thereafter, Escherichia coli DH5α competent cells (Toyobo, Japan) were transformed with the clone, and the obtained transformant was then cultured at 37° C. overnight in an LB plate containing 50 μg/mL ampicillin, 1 mg of X-gal and 1 mg of isopropyl-β-thiogalactopyranoside. White colonies were identified by colony direct PCR. Regarding the PCR reaction cycle, after a reaction had been carried out at 94° C. for 5 minutes, a reaction cycle of 94° C.-30 seconds, 55° C.-30 seconds, and 72° C.-30 seconds was repeated 30 times. Finally, an elongation reaction was carried out at 72° C. for 7 minutes. The following primer set, namely, an M13-F1 primer and an M13-R1 primer were used for amplification. The sequence of the amplified DNA was decoded using a sequencing primer KRAS-2R, and the KRAS gene mutation site in each colony was then identified.
(§1) KR12, which was considered to specifically alkylate the KRAS mutant codon 12 gene, was administered to a heterozygous colon cancer cell line LS180 having both a mutant codon 12 KRAS gene and a wild-type KRAS gene. Forty-eight hours later, RNA was extracted, and the KRAS gene was then quantitatively amplified. The amplified gene was cloned into a plasmid, using a TA cloning kit, and the obtained plasmid was then introduced into competent cells. Thereafter, by performing blue-white selection using an LB/amp/IPTG/X-Gal plate, white colonies having inserts were picked up, and then, the presence or absence of a colon 12 mutation in each colony was examined by direct sequencing or by a colony PCR method.

[2] = test system: mutant codon 12 KRAS gene and wild-type KRAS gene in LS180; experiment: Colony PCR with allele specific primers, LS180; format: cell-based, human; conditions: for MUT (number of mutant gene colonies) / WT (number of wild-type gene colonies): LS180, 50 nM, 48 hours, colony PCR, Table 3
Description: Using primers that specifically amplify the GAT mutant gene of KRAS codon 12 (KRAS-MUT-F and KRAS-MUT-R) and the wild-type genes thereof (KRAS-WT-F and KRAS-WT-R), PCR was carried out directly on the Escherichia coli cells in the above-described white colonies. Whether each colony was a mutant KRAS gene or a wild-type KRAS gene was determined, depending on by which primer set the band of interest was amplified.
as §1

[3] = test system: mutant KRAS genes and wild-type KRAS genes in PANC-1; experiment: Colony analysis of KRAS transcripts, PANC-1; format: cell-based; conditions: for MUT (number of mutant gene colonies) / WT (number of wild-type gene colonies): PANC-1, Table 4
SW480 (KRAS-MUThomo) = experiment: Suppression of tumor growth in nude mice, SW480 transplanted; format: in vivo; conditions: nude mice with SW480 cells; for cancer tumor-inhibitory effect / tumor growth suppression: comparison KR12, KR13, seco CBI, FIG. 15
Description: The below-mentioned 3 types of PBS solutions containing each type of cells were subcutaneously transplanted into the femurs of nude mice (i.e., HT29 into 7 mice, LS180 into 7 mice, and SW480 into 6 mice), and thereafter, at a time point in which a tumor adhered to the living body of each mouse and the tumor volume became approximately 100 mm^3, a drug was prepared with a composition of 3.4 mmol KR12 (1.36 mM KR12 dissolved in 2.5 μL of DMSO and 197.5 μL of PBS), or of a DMSO/PBS control (2.5 μL of DMSO and 197.5 μL of PBS). The prepared drug was subjected to sonication for 10 minutes, and 200 μL of the drug was administered to each mouse via the caudal vein thereof. The body weight and the tumor size were measured once three days, and the size of the tumor was measured by the method of 0.52×L×W×D(1/6×π×L×W×D).
SW480 (KRAS-MUThomo): (transplanted in an amount of 5×10^6 cells/100 μl PBS into the subcutis of each mouse; a cell line having a […] KRAS gene codon 12 mutation G12V)
Using, as controls, PIP-indole-seco-CBI (KR13) not recognizing a codon 12 mutation and 8.4 mmol seco CBI (3.36 mM CBI dissolved in 2.5 μL of DMSO and 197.5 μL of PBS), instead of the DMSO/PBS control, an experiment was carried out by the same method as that of the above section 11.

## CC(=O)Nc1cn(C)c(C(=O)Nc2cc(C(=O)NCCC(=O)Nc3cn(C)c(C(=O)Nc4cn(C)c(C(=O)Nc5cc(C(=O)Nc6cn(C)c(C(=O)NCCCC(=O)Nc7cc(C(=O)Nc8cn(C)c(C(=O)NCCC(=O)Nc9cc(C(=O)Nc%10cc(C(=O)Nc%11ccc%12[nH]c(C(=O)N%13CC(CCl)c%14c%13cc(O)c%13ccccc%14%13)cc%12c%11)n(C)c%10)n(C)c9)n8)n(C)c7)n6)n(C)c5)n4)n3)n(C)c2)n1 (stereo not shown) [KR12]
LS180 cells
  change in cell cycle: the LS180 cells at the S stage were increased
  change in cell cycle, Sub G1 stage (cell death): the cells at the Sub G1 stage were significantly increased
[1]
  MUT (number of mutant gene colonies): 14
  WT (number of wild-type gene colonies): 29
  number of mutant gene colonies relative to wild-type gene colonies: the number of mutant gene colonies was a half of the number of wild-type gene colonies
[2]
  MUT (number of mutant gene colonies): 11
  WT (number of wild-type gene colonies): 27
[2]; LS180, colony PCR
  expression levels of mutant cancer genes: the expression levels of mutant cancer genes were decreased
[3]
  MUT (number of mutant gene colonies): 24
  WT (number of wild-type gene colonies): 21
[3]; PANC-1, control group mutant 3-fold higher than wild-type
  expression levels of the mutant KRAS genes relative to wild-type KRAS genes: decreased to the same levels of the wild-type KRAS genes
SW480 (KRAS-MUThomo); 3.4 mmol KR12 via the caudal vein, FIG. 14C
  tumor size: significantly reduced
SW480 (KRAS-MUThomo); 2 months after the administration
  size of the tumor: significantly reduced
SW480 (KRAS-MUThomo); 3 months after the administration
  state of the tumor: an extremely small and hard induration
SW480 (KRAS-MUThomo)
  cancer tumor-inhibitory effect / tumor growth suppression: significantly higher than in the case of administration of KR13

## CC(=O)Nc1cn(C)c(C(=O)Nc2cn(C)c(C(=O)Nc3cc(C(=O)Nc4cn(C)c(C(=O)NCCC(=O)Nc5cc(C(=O)Nc6cn(C)c(C(=O)NCCCC(=O)Nc7cc(C(=O)Nc8cn(C)c(C(=O)Nc9cc(C(=O)NCCC(=O)Nc%10cc(C(=O)Nc%11ccc%12[nH]c(C(=O)N%13CC(CCl)c%14c%13cc(O)c%13ccccc%14%13)cc%12c%11)n(C)c%10)n(C)c9)n8)n(C)c7)n6)n(C)c5)n4)n(C)c3)n2)n1 (stereo not shown) [KR13]
LS180 cells
  change in cell cycle: the cells at the S phase and the G2M phase were slightly increased
  change in cell cycle, Sub G1 stage (cell death): an increase in the cell at the Sub G1 phase was not significant
[1]
  MUT (number of mutant gene colonies): 22
  WT (number of wild-type gene colonies): 15
  number of mutant gene colonies relative to wild-type gene colonies: the number of mutant genes was rather increased
[2]
  MUT (number of mutant gene colonies): 13
  WT (number of wild-type gene colonies): 14
[3]
  MUT (number of mutant gene colonies): 18
  WT (number of wild-type gene colonies): 8
SW480 (KRAS-MUThomo)
  cancer tumor-inhibitory effect / tumor growth suppression: impossible
